pIC50: −log10 of the molar value.
Assays:
[1] = Dissolution of compound in molten PEG; format: physicochemical; details: PEG 3350 and PEG 8000 melted at about 60° C. to 95° C.
From the text: The present inventors have discovered that certain active agents have a higher solubility in the presence of PEG than in water. […] This pellet forms a colloidal like suspension when the pellet dissolves in water. Furthermore, using blends of high and low molecular weight PEGs can make erodible gel with the compound uniformly dispersed in it (see examples). This provides an injection dosage form for delivery of insoluble compounds via posterior juxtascleral or intravitreal administration, which enhances the solubility of the compounds and achieves the desired bioavailability. In the formulations of the present invention, the compound forms a solid solution in the matrix of the PEG.

FGFR = assay: Cell-free enzymatic kinase inhibition assay, FGFR; format: biochemical; details: 1 mM ATP

Compound: Cc1ccc(F)c(NC(=O)Nc2ccc(-c3cccc4[nH]nc(N)c34)cc2)c1 [RTK Inhibitor, N-[4-(3-amino-1H-indazol-4-yl)phenyl]-N′-(2-fluoro-5-methylphenyl)urea]
- Solubility in PEG [1]: dissolve completely
- pIC50 (FGFR): < 4.90

From patent US20070173538A1 (Alcon, Inc., priority 2005, published 2007)
